Source: patent publication US20250289789A1, “REVERSIBLE LYSINE COVALENT MODIFIERS OF CDK2 AND USES THEREOF” (Terremoto Biosciences, Inc., priority 2023, published 2025)
pIC50: −log10 of the molar value. Read-outs that look alike come from different tables or passages of the source.

Columns and labels:
Format in all cases: cell-based
[1] = target: T1, CDK2-NanoLuc fusion with CCNE1 in 293T or 293 cells (Homo sapiens, UniProt P24941); experiment: NanoBRET Target Engagement (TE) Intracellular Kinase Assay, CDK2/CCNE1; details: NanoBRET TE intracellular kinase assay, 2-hour incubation, read-out: NanoBRET-CDK2/E1 IC50
T1 construct: host or cells: 293T (ATCC CRL-3216) or 293 (ATCC CRL-1573)
Procedure: (§1) Inhibitory effects of compounds were measured in NanoBRET TE Intracellular Kinase Assay. […] Cells were co-transfected with 1 μg/mL of CDK-NanoLuc Fusion Vector (Promega; NV2701 for CDK1, NV2781 for CDK2, NV2811 for CDK4, NV2841 for CDK6) and 1 μg/mL of the corresponding Cyclin Expression Vector (Promega; NV2601 for CCNB1, NV2641 for CCNE1, NV2621 for CCND1, NV2631 for CCND3) using FuGENE HD Transfection Reagent (Promega; E2311). […] 20 uL/well of 3× Intracellular TE Nano-Glo Substrate/Inhibitor (Promega; N2162) were added to 384-well plates and incubated for 3 minutes at room temperature. NanoBRET signals (donor emission wavelength at 450 nm, acceptor emission wavelength at 610 nm) were measured using Envision plate reader (PerkinElmer). NanoBRET ratio was calculated by: BRET Ratio=raw signal for acceptor/raw signal for donor. Dose response curve normalized to DMSO control was plotted using four-parameter logistic model for IC50 calculation.

[2] = target: T2, CDK4-NanoLuc fusion with CCND1 in 293T or 293 cells (Homo sapiens, UniProt P11802); experiment: NanoBRET Target Engagement (TE) Intracellular Kinase Assay, CDK4/CCND1; details: NanoBRET TE intracellular kinase assay, 2-hour incubation, read-out: NanoBRET-CDK4/D1 IC50
T2 construct: host or cells: 293T (ATCC CRL-3216) or 293 (ATCC CRL-1573)
Procedure: as §1

[3] = test system: Phospho-Rb Ser807/811 in OVCAR3 cells; experiment: OVCAR3 Phospho-Rb Ser807/811 HTRF assay; details: OVCAR3 cells, Phospho-Rb Ser807/811 HTRF, 1 hour incubation, read-out: pRb-OVCAR3 IC50
Procedure: Cells were trypsinized and resuspended in 1 mM hydroxyurea (Sigma; H8627), 90% RPMI and 10% fetal bovine serum. […] Dose response curve normalized to DMSO control was plotted using four-parameter logistic model for IC50 calculation.

T2 sequence (P11802 whole entry, the tested form may be a part): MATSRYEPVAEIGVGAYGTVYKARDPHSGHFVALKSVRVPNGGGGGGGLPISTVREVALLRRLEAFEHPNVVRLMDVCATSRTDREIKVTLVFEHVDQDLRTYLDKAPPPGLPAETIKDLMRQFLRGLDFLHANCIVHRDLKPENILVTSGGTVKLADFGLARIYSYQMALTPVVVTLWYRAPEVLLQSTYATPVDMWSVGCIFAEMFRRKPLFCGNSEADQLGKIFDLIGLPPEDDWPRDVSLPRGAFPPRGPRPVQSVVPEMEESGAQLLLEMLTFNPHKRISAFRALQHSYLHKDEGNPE
T2 sequence (P24385 whole entry partner, the tested form may be a part): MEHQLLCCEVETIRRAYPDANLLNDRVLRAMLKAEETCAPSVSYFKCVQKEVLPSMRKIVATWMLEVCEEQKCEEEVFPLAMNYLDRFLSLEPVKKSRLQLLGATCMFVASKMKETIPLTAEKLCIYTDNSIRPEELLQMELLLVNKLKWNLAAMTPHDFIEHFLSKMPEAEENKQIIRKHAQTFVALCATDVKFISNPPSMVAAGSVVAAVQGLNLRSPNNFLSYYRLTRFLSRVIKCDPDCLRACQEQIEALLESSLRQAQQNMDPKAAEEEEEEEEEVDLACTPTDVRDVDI

pIC50 [1]	pIC50 [2]	pIC50 ([3]; Homo sapiens, OVCAR-3, 1 h)	pIC50 [3]	SMILES
6.47	< 5.00	6.43		COc1cc(O)c(C=O)c(OCC(=O)Nc2cc([C@H]3CC[C@@H](OC(=O)NCCN(C)C)C3)[nH]n2)c1 [Compound 188]
8.29	< 5.00	7.50		CCNN(C)C(=O)O[C@@H]1CC[C@H](c2cc(NC(=O)COc3cc(OC)cc(O)c3C=O)n[nH]2)C1 [Compound 276, (1R,3S)-3-(3-(2-(2-formyl-3-hydroxy-5-methoxyphenoxy)acetamido)-1H-pyrazol-5-yl)cyclopentyl 2-ethyl-1-methylhydrazine-1-carboxylate]
8.50	< 5.00	7.26		CCN(C)NC(=O)O[C@@H]1CC[C@H](c2cc(NC(=O)COc3cc(OC)cc(O)c3C=O)n[nH]2)C1 [Compound 274, (1R,3S)-3-(3-(2-(2-formyl-3-hydroxy-5-methoxyphenoxy)acetamido)-1H-pyrazol-5-yl)cyclopentyl 2-ethyl-2-methylhydrazine-1-carboxylate]
8.23	6.29		7.87	COc1cc(O)c(C=O)c2c1CC(C(=O)Nc1cc([C@H]3CC[C@@H](OC(=O)NN(C)CC(F)(F)F)C3)[nH]n1)C2 (single isomer, unassigned) [Compound 264, (1R,3S)-3-(3-((*)-4-formyl-5-hydroxy-7-methoxy-2,3-dihydro-1H-indene-2-carboxamido)-1H-pyrazol-5-yl)cyclopentyl 2-methyl-2-(2,2,2-trifluoroethyl)hydrazine-1-carboxylate]
8.66	< 5.00	7.41		COc1cc(O)c(C=O)c(OCC(=O)Nc2cc([C@H]3CC[C@@H](OC(=O)N4C5CCC(C5)N4C)C3)[nH]n2)c1 (stereo partly drawn) [Compound 272, (1R,3S)-3-(3-(2-(2-formyl-3-hydroxy-5-methoxyphenoxy)acetamido)-1H-pyrazol-5-yl)cyclopentyl 3-methyl-2,3-diazabicyclo[2.2.1]heptane-2-carboxylate]
8.46	5.54	7.44		COc1cc(O)c(C=O)c(OCC(=O)Nc2cc([C@H]3CC[C@@H](OC(=O)N(C(C)C)C(C)C)C3)[nH]n2)c1 [Compound 151]
8.70	5.61	7.73		COc1cc(O)c(C=O)c(OCC(=O)Nc2cc([C@H]3CC[C@@H](OC(=O)N(C)CC(F)F)C3)[nH]n2)c1 [Compound 121]
8.16	5.37	6.95		COc1cc(O)c(C=O)c(OCC(=O)Nc2cc([C@H]3CC[C@@H](OC(=O)NC4(C#N)CCC4)C3)[nH]n2)c1 [Compound 148]
8.42	5.15	7.27		COc1cc(O)c(C=O)c(OCC(=O)Nc2cc([C@H]3CC[C@@H](OC(=O)NCC(F)F)C3)[nH]n2)c1 [Compound 142]
7.67	< 5.00	6.53		COc1cc(O)c(C=O)c(OCC(=O)Nc2cc([C@H]3CC[C@@H](OC(=O)NCc4cnn(C)c4)C3)[nH]n2)c1 [Compound 137]
7.85	< 5.00	6.94		COc1cc(O)c(C=O)c(OCC(=O)Nc2cc([C@H]3CC[C@@H](OC(=O)NCC4COC4)C3)[nH]n2)c1 [Compound 179]
6.62	5.49		< 5.00	COc1cc(O)c(C=O)c2c1CC(C(=O)Nc1cc([C@H]3C[C@@H](OC(=O)N(C)N(C)C)C3)n[nH]1)C2 (single isomer, unassigned) [Compound 271]
7.66	6.58		5.28	COc1cc(O)c(C=O)c2c1CC(C(=O)Nc1cc([C@H]3CC[C@@H](OC(=O)N4CCCCN4C)C3)[nH]n1)C2 (single isomer, unassigned) [Compound 267, (1R,3S)-3-(3-((*)-4-formyl-5-hydroxy-7-methoxy-2,3-dihydro-1H-indene-2-carboxamido)-1H-pyrazol-5-yl)cyclopentyl 2-methyltetrahydropyridazine-1(2H)-carboxylate]
8.13	< 5.00	7.10		COc1cc(O)c(C=O)c(OCC(=O)Nc2cc([C@H]3CC[C@@H](OC(=O)NN(C)C)C3)[nH]n2)c1 [Compound 160]
8.73	5.26	7.00		CCc1cc(O)c(C=O)c(OCC(=O)Nc2cc([C@H]3CC[C@@H](OC(=O)NC4(C)CC4)C3)[nH]n2)c1 [Compound 141]
8.10	5.38	7.46		COc1cc(O)c(C=O)c(OCC(=O)Nc2cc([C@H]3CC[C@@H](OC(=O)N4C5CC4CN(C)C5)C3)[nH]n2)c1 [Compound 190]
8.25	5.41	7.61		COc1cc(O)c(C=O)c(OCC(=O)Nc2cc([C@H]3CC[C@@H](OC(=O)N4C[C@H]5CC[C@@H]4CO5)C3)[nH]n2)c1 [Compound 158]
8.58	5.59	7.57		COc1cc(O)c(C=O)c(OCC(=O)Nc2cc([C@H]3CC[C@@H](OC(=O)N4[C@H](C)C[C@@H]4C)C3)[nH]n2)c1 [Compound 123]
8.55	5.97	7.79		COc1cc(O)c(C=O)c(OCC(=O)Nc2cc([C@H]3CC[C@@H](OC(=O)NC4(C(F)F)CC4)C3)[nH]n2)c1 [Compound 140, (1R,3S)-3-{5-[2-(2-formyl-3-hydroxy-5-methoxyphenoxy)acetamido]-2H-pyrazol-3-yl}cyclopentyl N-[1-(difluoromethyl)cyclopropyl]carbamate]
8.00	< 5.00	7.47		COc1cc(O)c(C=O)c(OCC(=O)Nc2cc([C@H]3CC[C@@H](OC(=O)NCCCC#N)C3)[nH]n2)c1 [Compound 156]
8.73	5.55	7.53		COc1cc(O)c(C=O)c2c1CC(C(=O)Nc1cc([C@H]3CC[C@@H](OC(=O)N(C)N(C)C)C3)n[nH]1)C2 (single isomer, unassigned) [Compound 284, (1R,3S)-3-(3-((*)-4-formyl-5-hydroxy-7-methoxy-2,3-dihydro-1H-indene-2-carboxamido)-1H-pyrazol-5-yl)cyclopentyl 1,2,2-trimethylhydrazine-1-carboxylate]
8.70	5.88	7.68		COc1cc(O)c(C=O)c(OCC(=O)Nc2cc([C@H]3CC[C@@H](OC(=O)N4C[C@H](F)[C@@H]4C)C3)[nH]n2)c1 [Compound 122]

SMILES	pIC50 [1]	pIC50 [2]	pIC50 ([3]; Homo sapiens, OVCAR-3, 1 h)	pIC50 [3]
O=Cc1c(O)cc(Cl)cc1OCC(=O)Nc1cc([C@H]2CC[C@@H](OC(=O)N3C4COCC3C4)C2)[nH]n1 [Compound 183]	8.00	5.38	6.85	
O=Cc1c(O)cccc1OCC(=O)Nc1cc([C@H]2CC[C@@H](OC(=O)N3C4COCC3C4)C2)[nH]n1 [Compound 196]	8.21	5.13	6.99	
O=Cc1c(O)cc(OC(F)F)cc1OCC(=O)Nc1cc([C@H]2CC[C@@H](OC(=O)N3C4COCC3C4)C2)[nH]n1 [Compound 186]	7.66	5.18	6.98	
